Values joined by “and” are separate entries in the source; they are usually repeats but may differ in a detail not shown here. Equal values may be shown once.
Biological target: T1, GVIA iPLA2 (Homo sapiens, UniProt O60733)
T1 sequence (O60733 1-806): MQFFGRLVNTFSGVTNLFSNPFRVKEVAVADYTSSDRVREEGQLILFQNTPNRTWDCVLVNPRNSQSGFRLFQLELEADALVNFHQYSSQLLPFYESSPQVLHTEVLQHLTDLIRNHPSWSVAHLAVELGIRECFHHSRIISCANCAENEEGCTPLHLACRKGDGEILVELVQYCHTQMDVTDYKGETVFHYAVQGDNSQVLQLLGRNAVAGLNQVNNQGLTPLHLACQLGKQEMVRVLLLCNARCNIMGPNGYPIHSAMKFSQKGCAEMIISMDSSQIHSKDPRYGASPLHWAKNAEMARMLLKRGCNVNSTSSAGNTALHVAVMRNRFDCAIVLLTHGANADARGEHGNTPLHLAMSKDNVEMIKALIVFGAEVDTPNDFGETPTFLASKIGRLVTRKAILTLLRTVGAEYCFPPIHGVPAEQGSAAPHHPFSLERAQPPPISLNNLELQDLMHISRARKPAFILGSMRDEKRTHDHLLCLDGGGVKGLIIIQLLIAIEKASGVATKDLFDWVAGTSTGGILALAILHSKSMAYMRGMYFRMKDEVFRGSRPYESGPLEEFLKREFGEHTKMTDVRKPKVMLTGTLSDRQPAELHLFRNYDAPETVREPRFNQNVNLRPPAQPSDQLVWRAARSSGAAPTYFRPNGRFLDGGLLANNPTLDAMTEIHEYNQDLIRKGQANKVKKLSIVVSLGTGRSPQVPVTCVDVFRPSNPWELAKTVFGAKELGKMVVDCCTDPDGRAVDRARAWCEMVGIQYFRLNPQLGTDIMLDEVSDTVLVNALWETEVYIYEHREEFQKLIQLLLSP
Assay: In vitro PLA2 mixed micellar assay (modified Dole assay), GVIA iPLA2
Assay type: biochemical
Conditions: for GVIA iPLA2 X1(50): mixed micelles, mole fraction of inhibitor in total substrate interface required to inhibit the enzyme by 50%; for GVIA iPLA2 % inhibition: at 0.091 mole fraction of inhibitor, n = 3
Experimental: FIG. 3 illustrates the dose-response curves for 2-oxoamide inhibitors of GVIA iPLA2. Inhibition of the activity of human GVIA iPLA2 by inhibitors (a) 8a and (b) 13 was tested on mixed-micelles containing 100 μM PAPC and 400 μM Triton X-100. Inhibition curves were generated by Graphpad Prism using a non-linear regression (one-site binding model—hyperbola) to calculate the reported XI(50) values.
All the inhibitors synthesized in this work were tested for inhibition of GIVA cPLA2, GVIA iPLA2 and GV sPLA2 using mixed micellar assays. Details for the assays have been published previously. The results of the inhibition are presented in Table 1 using either percent inhibition or XI(50) values. Initially, the percent inhibition of each PLA2 at 0.091 mole fraction of inhibitor was determined. XI(50) values were estimated when the percent inhibition was higher than 90%. The XI(50) is the mole fraction of the inhibitor in the total substrate interface required to inhibit the enzyme by 50%. Data for the reference 2-oxoamide inhibitors AX006 and AX048 are included in Table 1 for comparison.
Phospholipase A2 activity was determined using the previously described modified Dole assay with buffer and substrate conditions optimized for each enzyme as described previously: (i) GIVA cPLA2 substrate mixed-micelles were composed of 400 μM Triton X-100, 97 μM PAPC, 1.8 μM ^14C-labeled PAPC, and 3 μM PIP2 in buffer containing 100 mM HEPES pH 7.5, 90 μM CaCl2, 2 mM DTT and 0.1 mg/ml BSA; (ii) GVI iPLA2 substrate mixed-micelles were composed of either (a) 400 μM Triton X-100, 99 μM DPPC, and 1.5 μM ^14C-labeled DPPC in buffer containing 200 mM HEPES pH 7.0, 1 mM ATP, 2 mM DTT and 0.1 mg/ml BSA or (b) 400 μM Triton X-100, 98.3 μM PAPC, and 1.7 μM ^14C-labeled PAPC in buffer containing 100 mM HEPES pH 7.5, 2 mM ATP and 4 mM DTT; and (iii) GV sPLA2 substrate mixed-micelles were composed of 400 μM Triton X-100, 99 μM DPPC, and 1.5 μM ^14C-labeled DPPC in buffer containing 50 mM Tris pH 8.0 and 5 mM CaCl2.
Initial screening of compounds at 0.091 mole fraction inhibitor in mixed-micelles was carried out. Compounds displaying 25% or less inhibition had no inhibitory affect (designated N.D.). The average percent inhibition (and standard error, n=3) for compounds displaying more than 25% and less than 90% enzyme inhibition is reported herein. If the percent inhibition was greater than 90%, then its XI(50) was determined by plotting percent inhibition vs. inhibitor molar fraction (7 points; typically 0.005 to 0.091 mole fraction). Inhibition curves were modeled in Graphpad Prism using either a linear (x, y intercept=0) or non-linear regression (one-site binding model—hyperbola, BMAX=100) to calculate the reported XI(50) and associated error values.

Structure (SMILES) | GVIA iPLA2 X1(50) | GVIA iPLA2 % inhibition
CCCCCCCCCCCCCCC(=O)C(=O)N[C@@H](CCCC)C(=O)NCC(=O)OCC [Compound 4c, (S)-Ethyl 2-(2-(2-oxohexadecanamido)hexanamido)acetate] | 0.020 mole fraction and 0.020 ± 0.002 mole fraction | –
CCCCCCCCCCCCCCC(=O)C(=O)N[C@@H](CCCC)COCC(=O)OCC [Compound 13, (S)-Ethyl 2-(2-(2-oxohexadecanamido)hexyloxy)acetate] | 0.017 mole fraction and 0.017 ± 0.002 mole fraction | –
CCCCCCCCCCCCCCC(=O)C(=O)N[C@@H](CCCC)C(=O)NCC(=O)O [Compound 9a, (S)-2-(2-(2-Oxohexadecanamido)hexanamido)acetic Acid] | – | N.D.^a (N.D. signifies compounds with less than 25% inhibition (or no detectable inhibition).)
CCCCCCCCCCCCCCC(=O)C(=O)N[C@H](C(=O)NCC(=O)OC(C)(C)C)C(C)C [Compound 8b, (S)-tert-Butyl-2-(3-methyl-2-(2-oxohexadecanamido)butanamido)-acetate] | 0.044 ± 0.025 mole fraction | –
CCCCCCCCCCCCCCC(=O)C(=O)N[C@@H](CCCC)C(=O)NCC(=O)OC(C)(C)C [Compound 8a, (S)-tert-Butyl 2-(2-(2-oxohexadecanamido)hexanamido)acetate] | 0.011 mole fraction and 0.011 ± 0.001 mole fraction | –
CCCCCCCCCCCCCCC(=O)C(=O)N[C@@H](CCCC)COCC(=O)O [Compound 18, (S)-2-(2-(2-oxohexadecanainido)hexyloxy)acetic Acid] | – | N.D.^a (N.D. signifies compounds with less than 25% inhibition (or no detectable inhibition).)
CCCCCCCCCCCCCCC(=O)C(=O)N[C@H](C(=O)NCC(=O)O)C(C)C [Compound 9b, (S)-2-(3-Methyl-2-(2-oxohexadecanamido)butanamido)acetic Acid] | – | N.D.^a (N.D. signifies compounds with less than 25% inhibition (or no detectable inhibition).)
CCCCCCCCCCCCCCC(=O)C(=O)N[C@H](C(=O)NCC(=O)OC)C(C)C [Compound 4b, (S)-Methyl-2-(3-methyl-2-(2-oxohexadecanamido)butanamido)-acetate] | – | N.D.^a (N.D. signifies compounds with less than 25% inhibition (or no detectable inhibition).)
CCCCCCCCCCCCCCC(=O)C(=O)N[C@@H](CCCC)C(=O)NCC(=O)OC [Compound 4a, (S)-Methyl 2-(2-(2-oxohexadecanamido)hexanamido)acetate] | 0.045 ± 0.018 mole fraction | –
CCCCCCCCCCCCCCC(=O)C(=O)N[C@@H](CCCC)COCC(=O)OC(C)(C)C [Compound 17, (S)-tert-Butyl 2-(2-(2-oxohexadecanamido)hexyloxy)acetate] | – | 81%
